Active and inactive are the calls of the source. The rule behind the calls is not given here.
Experiments:
[1] = Antiproliferative activity against human MOLM16 cells assessed as cell growth inhibition incubated for 4 days by celltiter-glo assay; assay type: functional, cell-based, MOLM-16; conditions: MOLM16, 96 h
[2] = Half life in ICR mouse at 5 mg/kg, iv; assay type: ADME, organism-based; conditions: in vivo
[3] = Clearance in ICR mouse at 5 mg/kg, iv; assay type: ADME, organism-based; conditions: in vivo
[4] = Clearance in ICR mouse assessed as hepatic blood flow at 5 mg/kg, iv; assay type: ADME, organism-based; conditions: in vivo
[5] = Half life in Sprague-Dawley rat at 5 mg/kg, iv; assay type: ADME, organism-based; conditions: in vivo
[6] = Cmax in Sprague-Dawley rat at 5 mg/kg, iv; assay type: ADME, organism-based; conditions: in vivo
[7] = AUC (0 to t) in Sprague-Dawley rat at 5 mg/kg, iv; assay type: ADME, organism-based; conditions: in vivo
[8] = Half life in Beagle dog at 1 mg/kg, iv; assay type: ADME, organism-based, Canis lupus familiaris; conditions: in vivo
[9] = Plasma protein binding in human assessed as unbound fraction at 10 uM; assay type: ADME, cell-free
[10] = target: T1, Protein cereblon/Signal transducer and activator of transcription 1-alpha/beta (Homo sapiens, UniProt P42224+Q96SW2); experiment: PROTAC activity at STAT1/CRBN in human PBMC cells assessed as reduction in STAT1 level incubated for 20 hrs by Western blot analysis; assay type: cell-based
[11] = target: T2, Protein cereblon/Signal transducer and activator of transcription 2 (Homo sapiens) (UniProt Q96SW2+P52630); experiment: PROTAC activity at STAT2/CRBN in human PBMC cells assessed as reduction in STAT2 level upto 40 uM incubated for 20 hrs by Western blot analysis; assay type: cell-based
[12] = target: T3, Protein cereblon/Signal transducer and activator of transcription 6 (Homo sapiens) (UniProt P42226+Q96SW2); experiment: PROTAC activity at STAT6/CRBN in human PBMC cells assessed as reduction in STAT6 level upto 40 uM incubated for 20 hrs by Western blot analysis; assay type: cell-based
[13] = Stability in mouse plasma assessed as half life; assay type: ADME, cell-free
[14] = Stability in dog plasma assessed as half life; assay type: ADME, cell-free, Canis lupus familiaris
[15] = Stability in rat plasma assessed as parent compound remaining at […]; assay type: ADME, cell-free; conditions: read-out: Stability
[16] = Stability in Non human primate plasma assessed as parent compound remaining at […]; assay type: ADME, cell-free; conditions: read-out: Stability
[17] = Stability in human plasma assessed as parent compound remaining at […]; assay type: ADME, cell-free; conditions: read-out: Stability
[18] = target: Cytochrome P450 2B6 (Homo sapiens, UniProt P20813); experiment: Inhibition of CYP2B6 (unknown origin); assay type: ADME
[19] = target: Cytochrome P450 2C19 (Homo sapiens, UniProt P33261); experiment: Inhibition of CYP2C19 (unknown origin); assay type: ADME
[20] = target: T1, Protein cereblon/Signal transducer and activator of transcription 1-alpha/beta; experiment: PROTAC activity at STAT1/CRBN in human SU-DHL-1 cells assessed as reduction in STAT1 level upto 40 uM incubated for 20 hrs by Western blot analysis; assay type: cell-based
[21] = system: SU-DHL-1; experiment: PROTAC activity at STAT5/CRBN in human SU-DHL-1 cells assessed as reduction in STAT5 level upto 40 uM incubated for 20 hrs by Western blot analysis; assay type: cell-based
[22] = target: T2, Protein cereblon/Signal transducer and activator of transcription 2 (Homo sapiens); experiment: PROTAC activity at STAT2/CRBN in human MOLM16 cells assessed as reduction in STAT2 level upto 40 uM incubated for 4 hrs by Western blot analysis; assay type: cell-based
[23] = target: T3, Protein cereblon/Signal transducer and activator of transcription 6 (Homo sapiens); experiment: PROTAC activity at STAT6/CRBN in human MOLM16 cells assessed as reduction in STAT6 level incubated for 4 hrs by Western blot analysis; assay type: cell-based
[24] = target: T3, Protein cereblon/Signal transducer and activator of transcription 6 (Homo sapiens); experiment: PROTAC activity at STAT6/CRBN in human Pfeiffer cells transfected with STAT3 K658R mutant assessed as reduction in STAT6 level upto 40 uM incubated for 20 hrs by Western blot analysis; assay type: cell-based
[25] = target: Protein cereblon/Signal transducer and activator of transcription 3 (Homo sapiens, UniProt P40763+Q96SW2); experiment: PROTAC activity at his-SUMO-tagged STAT3 (127 to 688 residues)/CRBN in human MOLM16 cells assessed as reduction in STAT3 level upto 40 uM incubated for 4 hrs by Western blot analysis relative to control; assay type: cell-based; set-up: scale not given: the % may be the effect or the level left
[26] = target: Signal transducer and activator of transcription 1-alpha/beta (Homo sapiens, UniProt P42224); experiment: Binding affinity to STAT1 (unknown origin) by FP assay
[27] = target: Signal transducer and activator of transcription 3 (Homo sapiens, UniProt P40763); experiment: Binding affinity to STAT3 (unknown origin) assessed as maximum inhibition by FP assay relative to control
[28] = target: Signal transducer and activator of transcription 1-alpha/beta (Homo sapiens) (UniProt P42224); experiment: Binding affinity to STAT1 (unknown origin) assessed as maximum inhibition by FP assay relative to control
[29] = target: Signal transducer and activator of transcription 4 (Homo sapiens) (UniProt Q14765); experiment: Binding affinity to STAT4 (unknown origin) assessed as maximum inhibition by FP assay relative to control
[30] = target: T4, Protein cereblon/Signal transducer and activator of transcription 3 (Mus musculus) (UniProt P42227+Q8C7D2); experiment: In-vivo PROTAC activity at STAT3/CRBN in female CB17 SCID mouse assessed as STAT3 depletion spleen at 5 mg/kg, iv measured upto 72 hrs by immunobloting analysis; assay type: functional, organism-based
[31] = target: T4, Protein cereblon/Signal transducer and activator of transcription 3 (Mus musculus); experiment: In-vivo PROTAC activity at STAT3/CRBN in female CB17 SCID mouse assessed as STAT3 depletion liver at 5 mg/kg, iv measured at 1 hr by immunobloting analysis; assay type: functional, organism-based
[32] = target: T4, Protein cereblon/Signal transducer and activator of transcription 3 (Mus musculus); experiment: In-vivo PROTAC activity at STAT3/CRBN in female CB17 SCID mouse assessed as reduction in STAT3 level liver at 5 mg/kg, iv measured at 72 hrs by immunobloting analysis; assay type: functional, organism-based; set-up: scale not given: the % may be the effect or the level left
[33] = target: T4, Protein cereblon/Signal transducer and activator of transcription 3 (Mus musculus); experiment: In-vivo PROTAC activity at STAT3/CRBN in female CB17 SCID mouse assessed as reduction in STAT3 level spleen at 5 mg/kg, iv measured at 72 hrs by immunobloting analysis; assay type: functional, organism-based; set-up: scale not given: the % may be the effect or the level left
[34] = target: T4, Protein cereblon/Signal transducer and activator of transcription 3 (Mus musculus); experiment: In-vivo PROTAC activity at STAT3/CRBN in female CB17 SCID mouse assessed as reduction in STAT3 level tumor at 5 mg/kg, iv measured at 72 hrs by immunobloting analysis; assay type: functional, organism-based; set-up: scale not given: the % may be the effect or the level left
[35] = Drug concentration in female CB17 SCID mouse plasma at 5 mg/kg, iv measured at 1 hr by LC-MS/MS analysis; assay type: ADME, organism-based
[36] = Drug concentration in female CB17 SCID mouse plasma at 5 mg/kg, iv measured at 72 hrs by LC-MS/MS analysis; assay type: ADME, organism-based
[37] = Drug concentration in female CB17 SCID mouse liver at 5 mg/kg, iv measured at 1 hr by LC-MS/MS analysis; assay type: ADME, organism-based; conditions: read-out: Ct
[38] = Drug concentration in female CB17 SCID mouse liver at 5 mg/kg, iv measured at 6 hrs by LC-MS/MS analysis; assay type: ADME, organism-based; conditions: read-out: Ct
[39] = Drug concentration in female CB17 SCID mouse tumor at 5 mg/kg, iv measured at 1 hr by LC-MS/MS analysis; assay type: ADME, organism-based, Neoplasm; conditions: read-out: Ct
[40] = Drug concentration in female CB17 SCID mouse tumor at 5 mg/kg, iv measured at 72 hrs by LC-MS/MS analysis; assay type: ADME, organism-based, Neoplasm; conditions: read-out: Ct

Q: What does the source list for `COC(=O)N1CC[C@H]2CC[C@@H](C(=O)N[C@@H](CCC(N)=O)C(=O)N[C@@H](Cc3ccc(F)c(F)c3)C(=O)N3CCC(CCC#Cc4cccc5c4CN(C4CCC(=O)NC4=O)C5=O)CC3)N2C(=O)[C@@H](NC(=O)c2cc3cc(C(F)(F)P(=O)(O)O)ccc3s2)C1` (stereo not given in full)?
A: IC50 [1]: 38 nM; half-life [2]: 22.1 h; clearance [3]: 3.06 mL/h/kg; QH [4]: 0.1%; half-life [5]: 1 h; Cmax [6]: 82600 ng/mL; AUC(0-t) [7]: 59500 ng·h/mL; half-life [8]: 2.3 h; Fu [9]: 0.5%; DC50 [10]: 1600 nM; Activity [11]: inactive; Activity [12]: inactive; t1/2 [13]: > 2 h; t1/2 [14]: > 2 h; remaining at 2 h [15]: 94%; remaining at 2 h [16]: 101%; remaining at 2 h [17]: 75%; IC50 [18]: > 10000 nM; IC50 [19]: > 10000 nM; Activity [20]: inactive; Activity [21]: inactive; Activity [22]: inactive; Activity [23]: inactive; Activity [24]: inactive; Activity [25]: > 95%; IC50 [26]: 270 nM; Imax [27]: 100%; Imax [28]: 100%; Imax [29]: 100%; Activity [30]: Active; Activity [31]: > 70%; Activity [32]: > 90%; Activity [33]: > 90%; Activity [34]: > 90%; concentration at 1 h [35]: 47300 ng/mL; concentration at 72 h [36]: 8430 ng/mL; concentration at 1 h [37]: 5850 ng/g; concentration at 6 h [38]: 3570 ng/g; concentration at 1 h [39]: 4810 ng/g; concentration at 72 h [40]: 925 ng/g

— ChEMBL document CHEMBL6092220 (J Med Chem, 2024)
